Experimental data published in US4673690A, “Acylated enamides and pharmaceutical compositions containing them” (priority 1982, dated 1987).

Assays:
[1] = system: Taper Liver Tumor cancer cells; assay: Survival of mice inoculated with Taper Liver Tumor cells (Example 2); assay type: in vivo; settings: cyclophosphamide alone, intraperitoneal, 48 hours after cancer cells
Method: A pharmaceutical composition is prepared by mixing 4 g of para-(methoxyphenylacetyl)-dehydroalanine obtained according to Example 1 and 3.2 g of cyclophosphamide.
One million "Taper Liver Tumor" cancer cells are injected intraperitoneally into a group of 10 mice each weighing about 30 g. 48 hours after this injection, the pharmaceutical composition described above is administered again intraperitoneally, in an amount of 180 mg per kg of mouse.
By way of comparison, a group of 10 similar mice to which likewise one million "Taper Liver Tumor" cancer cells have been administered is subjected solely to administration of cyclophosphamide, by intraperitoneal injection, 48 hours after administration of the cancer cells, and a group of 10 other similar mice, to which, again, one million "Taper Liver Tumor" cancer cells have been administered is not subjected to any further treatment whatsoever.

[2] = system: Taper Liver Tumor cancer cells; assay: Taper Liver Tumor in mice, variation of the amount of cyclophosphamide (Example 4); assay type: in vivo, NMRI strain; settings: i.p.
Method: (§1) One million "Taper Liver Tumor" cancer cells are injected intraperitoneally into groups of twelve adult male mice, NMRI strain, the mice having a body weight of about 30 grams. 48 hours after this injection various pharmaceutical compositions according to the invention are administered, again intraperitoneally, to the mice, the amount of cyclophosphamide present in the composition administered being varied, and compositions only containing cyclophosphamide also being administered.
(§2) Thereafter, three parameters are measured:
(a) the variation of the mean weight of the mice on the fifth day after inoculation of the cancer tumour (V.M.W.)
(§3) (b) the median survival of 12 mice treated with a pharmaceutical composition according to the invention or treated with cyclophosphamide alone (M.S.)
(c) the prolongation of survival of the mice treated with a composition according to the invention relative to comparison mice treated with the same dose of cyclophosphamide (P.S).

[3] = system: Taper Liver Tumor cancer cells; assay: Taper Liver Tumor in mice, variation of the amount of S 86 (Example 3); assay type: in vivo, NMRI strain; settings: cyclophosphamide 80 mg/kg alone, i.p.
Method: as §1, with “of para-(methoxyphenylacetyl)-dehydroalanine” for “of cyclophosphamide”, “also beino” for “also being”
as §2
(a) the variations of the mean weight of the mice on the fifth day after inoculation of the cancer tumour (V.M.W.)
as §3
(c) the prolongation of survival of the mice treated with a composition according to the invention relative to comparison mice treated with cyclophosphamide alone (P.S.).

[4] = Lethal dose (LD50) in the mouse; settings: in vivo
Text: The results obtained are listed in the table below, the para-(methoxyphenylacetyl)-dehydroalanine being referred to by the code S 86.

Solubility = assay type: physicochemical
[5] = system: benzo(a)pyrene hydroxylase; assay: Toxicity of doxorubicin in vivo: benzo(a)pyrene hydroxylase activity in the liver; design: species or system rats
Method: (§4) On the other hand the drop in benzo(a)pyrene hydroxylase activity is no more than 20% and the decrease in aldrin mono-oxygenase activity is reduced to 40%.
(§5) A single dose (10 mg/kg) of a composition containing equal amounts by weight of doxorubicin and of para-(methoxyphenylacetyl)-dehydroalanine was injected into rats. A 60% increase in the minimum content of cytochrome P450, a 20% increase in the benzo(a)pyrene hydroxylase activity and a 5% decrease in the aldrin mono-oxygenase activity were observed.

aldrin mono-oxygenase = assay: Toxicity of doxorubicin in vivo: aldrin mono-oxygenase activity in the liver; design: species or system rats; settings: rat
Method: as §4, §5

cytochrome P450 = assay: Toxicity of doxorubicin in vivo: content of cytochrome P450 in the liver; design: species or system rats
Method: as §4, §5

L311 leukaemia cells = assay: Survival of rats inoculated with L311 leukaemia cells (Example 6); assay type: in vivo, LOU/2 strain; settings: doxorubicin alone, intraperitoneal
Method: A pharmaceutical composition is prepared by mixing 4 g of para-(methoxyphenylacetyl)-dehydroalanine obtained according to Example 1 and 0.2 g of doxorubicin.
One million L311 leukaemia cells are injected intraperitoneally into a group of six rats, LOU/2 strain, the mean body weight of the rats being 160 g. L311 leukaemia is a tumour transplantable in rats of strain LOU/2, the tumour being described in the article by C. Deckers, F. Mare, L. Deckers-Passeu and A. Trouet, Adriamycin Review, Part I, 1973, pages 79 to 86.
48 hours after this injection the pharmaceutical composition described above is administered to the rats, again intraperitoneally, in an amount of 105 mg per kg of rat.
By way of comparison, a group of twelve similar rats to which one million L311 leukaemia cells have also been administered is subjected solely to intraperitoneal administration of doxorubicin 48 hours after the administration of the L311 leukaemia cells, and a group of twelve similar rats to which one million L311 leukaemia cells have also been administered is given no subsequent treatment whatsoever.

[6] = cyclophosphamide 80 mg/kg alone
[7] = cyclophosphamide 180 mg/kg alone
[8] = cyclophosphamide 360 mg/kg alone
[9] = cyclophosphamide 450 mg/kg alone
[10] = cyclophosphamide 540 mg/kg alone
[11] = single dose of doxorubicin 10 mg/kg, subcutaneous, rat liver

## O=P1(N(CCCl)CCCl)NCCCO1 (stereo not shown) [Cyclophosphamide, cyclophosphamide]
[1]
  all die between (day of death): twenty-second day and the twenty-fifth day
[2]; [6]
  median survival (M.S.): 21 days
  variation of the mean weight of the mice on the fifth day (V.M.W.): -2.2
[2]; [7]
  median survival (M.S.): 23 days
  variation of the mean weight of the mice on the fifth day (V.M.W.): -4.4
[2]; [8]
  median survival (M.S.): 31 days
  variation of the mean weight of the mice on the fifth day (V.M.W.): -6.6
[2]; [9]
  median survival (M.S.): 20 days
  variation of the mean weight of the mice on the fifth day (V.M.W.): -14
[2]; [10]
  median survival (M.S.): 12 days
  variation of the mean weight of the mice on the fifth day (V.M.W.): -18.6
[3]
  median survival (M.S.): 24 days
  variation of the mean weight of the mice on the fifth day (V.M.W.): -1

## C=C(NC(=O)Cc1ccc(OC)cc1)C(=O)O [S 86, para-(methoxyphenylacetyl)-dehydroalanine]
[4]
  LD50: > 400 mg/kg
Solubility
  solubility of the product: low solubility

## NCCS [cysteamine]
[5]; rat, in vivo
  drop in benzo(a)pyrene hydroxylase activity: no more than 20%
Aldrin mono-oxygenase
  decrease in aldrin mono-oxygenase activity: 40%
Cytochrome P450; rat, in vivo
  protection against the effect of doxorubicin on the level of cytochrome P450: does not protect

## COc1cccc2c1C(=O)c1c(O)c3c(c(O)c1C2=O)C[C@@](O)(C(=O)CO)C[C@@H]3O[C@H]1C[C@H](N)[C@H](O)[C@H](C)O1 [doxorubicin]
L311 leukaemia cells
  first death after administration of the leukaemia cells: sixteen
L311 leukaemia cells; 48 hours after leukaemia cells
  mean length of survival after administration of the leukaemia cells: 27.6 days
[5]; [11]
  benzo(a)pyrene hydroxylase activity (in words): a drop in benzo(a)pyrene hydroxylase activity
Cytochrome P450; [11]
  reduction in the minimum content of cytochrome P450: 20%
